Non-standard residues stand in square brackets, D forms with d. Residues, ends and D or L forms follow the SMILES beside them. *: point of attachment. NHPhenethyl = c1ccc(CCN*)cc1; pGlu = O=C1CC[CH](C(=O)O)N1
melting point [°C] | SMILES
209 to 211 | NC(=O)CC(NC(=O)C(CO)NC(=O)CNC(=O)CNC(=O)C1CCC(=O)N1)C(=O)NC(Cc1ccccc1)C(=O)NCCc1ccccc1 (stereo not given) ([pGlu]GGSNF-NHPhenethyl; configuration not given here)
148 | O=c1ccc(Oc2ccccc2)n[nH]1
195 to 197 | COc1cn(-c2ccc(N3CCC(F)(F)C3)cc2F)nc(-c2ccnn2-c2ccccc2)c1=O
187 to 188 | COc1cc(-c2ccc(O)c(C3(C)CCCCC3)c2)cc(CC2SC(N(C)C)=NC2=O)c1OC (stereo not given)
80.7 to 81.4 | CCCCCCCCCCCCCCCCOC(=O)c1cnc(C(=O)OCCCCCCCCCCCCCCCC)c2ccccc12
78 | ClCSc1ncc(Cl)cn1
173 to 175 | CC(=O)Nc1ccc(OCC2CO2)c(-c2nnco2)c1 (stereo not given)
50 to 51 | O=C1SCCN1Cc1ccccc1
238 | O=c1c2[nH]c(N(S(=O)(=O)c3ccccc3)S(=O)(=O)c3ccccc3)nc2n(CC2CC2)c(=O)n1CC1CC1
92 to 96 | CC(C)[C@H](NC(=O)N(C)Cc1ccccn1)C(=O)N[C@@H](Cc1ccccc1)C[C@H](O)[C@H](Cc1ccccc1)NC(=O)[C@@H](NC(=O)N(C)Cc1ccccn1)C(C)C
238 | CCCN1Cc2cc(Oc3cccc(NCc4c(C)cc(C)cc4C)c3)ccc2N=C1N
103 to 105 | CCOC(=O)CCc1ccc(C2COc3c(C)c(C)c(NC(=O)CC(C)(C)C)c(C)c32)cc1 (stereo not given)
183 to 185 | CCCn1c(-c2ccccc2)nc2cc(C#N)c(C#N)cc21
188 to 189 | NC(=S)Nc1ccc(Br)cc1
122 to 123 | COc1ccc(CC(=O)O)cc1OCCCc1cn(-c2ccc(C(F)(F)F)cn2)nc1C(C)C
51 | O=C(Sc1ccccn1)c1c(F)c(F)c(F)c(F)c1F
101 to 105 | CC(C)C[C@H](NC(=O)c1ccco1)C(=O)N[C@@H](C(C)C)[C@@H](O)c1c(-c2ccccc2)c1=O

melting point [°C] | SMILES
67 to 68.5 | CCOC(=O)c1c(C(C)C)c[nH]c1C
> 220 | CCc1ccc(Oc2cnc(S)[nH]c2=O)cc1
89 | C=C(C)[C@@H]1CC=C(OC(=O)C2CCC(C(=O)OC3=CC[C@@H](C(=C)C)CC3)CC2)CC1 (stereo not given in full)
60 to 65 | O=C=Nc1ccc(C(=S)OC2CCCCC2)c(Cl)c1
165 to 167 | CC(C)Cn1c(=O)n(C)c(=O)c2c(CCC(=O)O)c(Cc3ccccc3C(F)(F)F)sc21
230 | CC1(c2ccc(S(C)(=O)=O)cc2)OC=C(Br)C(=O)C1Oc1ccc(F)cc1F (stereo not given)
190 to 191 | CCOC(=O)c1cc2ccc3c(c2cc1OC)OC(n1cccc1)=C(C#N)C3c1cccc([N+](=O)[O-])c1 (stereo not given)
153 to 154 | COc1cc(C=CCN(C)CCc2ccc(N=C(N)c3cccs3)cc2)cc(OC)c1O
176 to 178 | CCOC(=O)Cc1sc(S)nc1-c1ccc(Cl)cc1
100 | CCCCSc1ccc(/C=C\C(C)=O)cc1[N+](=O)[O-]
79 to 80.5 | COC(=O)c1ccccc1C=NC(C)(C(N)=O)C(C)C (stereo not given)
227 to 229 | COc1cc2ncc(C#N)c(Nc3ccc(Cl)cc3C)c2cc1OC
125 to 126 | CC(C)(CNc1ccnc2cc(Cl)ccc12)NCc1cccc(Cl)c1
132 to 133 | Fc1ccccc1-c1nc(N2CCNCC2)nc2ccccc12
242 to 243 | CN(c1cccc2cc(-c3ncc(CS(C)(=O)=O)s3)[nH]c12)S(=O)(=O)c1cccs1
134 to 136 | CC(C)C[C@H](NC(=O)[C@H](NC(=O)OCc1ccccc1)C(C)C)C(=O)O

The next lines start with the compound.

SMILES | melting point [°C]
O=C1C(=CO)Cc2ccccc21 | 112 to 113
COC(=O)c1ccc(N2CCN(S(C)(=O)=O)CC2)nc1 | 205 to 207
CC(C)C(=O)N[C@@H](CSC(=O)C(C)(C)C)C(=O)NCCSC(=O)C(C)(C)C | 106 to 108
O=[N+]([O-])c1cccnc1Nc1ccc2c(c1)COC2 | 146 to 147
Cc1c(Cc2cccc(C(F)(F)F)c2)sc2c(-c3cc(F)cc(C(=O)NCCO)c3)cccc12 | 151 to 152
CCOC(=O)c1ncc2[nH]c3c([N+](=O)[O-])cccc3c2n1 | 318 to 325
N#Cc1cccc2c1CC(=NN)c1cc(F)ccc1S2 | 220 to 222
Cc1ccccc1C(CCC(=O)NS(=O)(=O)c1ccccc1)Oc1cc(OCc2ccsc2)ccc1C#N (racemic) | 68 to 70
COc1ccc(C(=O)c2c(-c3ccc(OC)cc3)sc3cc(OC)ccc23)cc1 | 119 to 120
Cc1c(-c2ccc(O)cc2)sc(C=O)c1-c1ccc(O)c(Cl)c1 | 234 to 236
Cc1ccccc1CNC(=S)c1ccc2c(c1)N(C(C)CN1CCCC1)c1ccccc1S2 (racemic) | 110
c1ccc(-c2ccc(-c3cc4ccccc4[nH]3)cc2)cc1 | 301
OCC(O)COc1ccccc1OCc1ccccc1 (stereo not given) | 81 to 82.5
O=C(c1ccc2c(c1)OCC(c1ccccc1)=N2)N1CCOCC1 | 175 to 177
Cc1ccsc1C=Nc1cc([N+](=O)[O-])ccc1O | 169 to 171
COc1cc(N(C)C)ccc1C=Nc1cc(Cl)c(N=CN(C)C)c(Cl)c1 | 137 to 139
CC(C)(C)OC(=O)C(F)=CC1C(C(=O)OC(C#N)c2ccc(F)c(Oc3ccccc3)c2)C1(C)C (stereo not given) | 122
COc1ccc(OC)c2nccnc12 | 145 to 150
CCCCCN1C(=O)C2(COc3cc4c(cc32)OCO4)c2c(C#N)cccc21 (stereo not given) | 128 to 129

SMILES | melting point [°C]
Cc1cc(-n2cnnn2)cc2ccoc12 | 118
CC(C)(C)c1ccc([C@H]2CCCN2[S@@](=O)C(C)(C)C)cc1 | 45 to 50
CON=CNC(=O)c1ccc(C=NO)cc1C | 88 to 91
CCNc1ccc(C(=O)CBr)cc1S(N)(=O)=O | 156 to 157
CCCCCCCCCCCCCCCCCCC1CNc2ccc(C(=O)O)cc21 (racemic) | 84 to 87
O=C(O)CCCNC(=O)n1cc(F)c(=O)[nH]c1=O | 146 to 147
CCOc1nn(-c2ccc(C(F)(F)F)cn2)cc1CCOc1cccc(OC(C)(C)C(=O)O)c1 | 89 to 90
COC(=O)C1CCC(=O)N1C(=O)Nc1ccccc1 (stereo not given) | 91 to 92
CCCCC(NC(=O)OCc1ccccc1)C(=O)Nc1n[nH]c(=S)s1 (stereo not given) | 169 to 171
CCc1noc(-c2ncc3[nH]c4cccc(CN5CCOCC5)c4c3c2COC)n1 | 161 to 163
COC(=O)c1cc(N)c(C)c(-n2cccc2)c1 | 112
Clc1ccc(-c2cn3ccccc3n2)c(Cl)c1 | 174 to 177
CCn1c(C(F)(F)F)n[nH]c1=O | 54
CCc1[nH]nc(C(=O)NC2CCCC2)c1NC(=O)c1cnccn1 | 175 to 176
CCCCCCC(=O)Oc1ccc(-c2ccc(C#N)cc2)cc1 | 57.7 to 57.9
COC(=O)C(C)(C)CCCOc1cc(C)c(OC(=O)Nc2c(C(C)C)cccc2C(C)C)cc1C | 111 to 112
Cc1c(-c2ccncc2)c(-c2ccc(F)cc2)n2c1SCC2 | 208
COc1cccc2c1C(CN1CC=C(c3c[nH]c4cc(Cl)ccc34)CC1)CC2 (stereo not given) | 177 to 178

From a melting point compilation (Tetko et al.; mined from patent text by program, amines drawn as free bases though some values may be those of a salt)
